Here are results for 1 compound from patent publication US12071431B2, “Pyridin-sulfonamide compounds for the treatment of conditions related to interleukin 1 beta” (ALLINKY BIOPHARMA, priority 2018, dated 2024).

One assay concerns IL-1β. The assay is described as follows: In vitro inhibition of IL-1β in human primary macrophages challenged with LPS (ELISA). It counts as cell-based. The conditions noted are these: Primary macrophage, 2 hours compound pre-treatment, 100 ng/mL LPS, 16 hours, read-out: IC50 (IL-Iβ inhibition). On the procedure:
Example 12—In Vitro Inhibition of IL-1β in Human Primary Macrophages Challenged with LPS
5 mL of RPMI media without serum (1:1) was added to a sample of 5 mL of human whole blood in EDTA or sodium citrate and mixed well by inversion. 3 mL of Histopaque-1077 was added to a 15 mL conical centrifuge tube and brought to room temperature. Using a transfer pipette, 10 mL of the blood-RPMI mixture was carefully layered onto the Histopaque-1077 and was centrifuged at 400×g for exactly 30 minutes at room temperature.
After centrifugation, a pasteur pipette was used to aspirate the upper layer to within 0.5 cm of the opaque interface containing the mononuclear cells. The upper layer was discarded. With a Pasteur pipette, the opaque interface was carefully transferred to a clean conical centrifuge tube. 5 mL RPMI was added to the tube and mixed by inversion, followed by centrifugation at 250×g for exactly 10 minutes. The supernatant was aspirated and discarded.
The leukocyte pellet was re-suspended with 5 mL RPMI and mixed gently with a Pasteur pipette, followed by centrifugation at 250×g for exactly 10 minutes. The pellet was washed 3× with PBS and re-suspended in RPMI medium.
2×10^5 PBMCs at a total volume of 200 μL/well were plated into a 96-well plate and incubated for 4 hrs at 37° C. in a CO2 incubator to allow the monocytes to settle, leaving the lymphocytes in suspension. Following incubation, 100 μL were aspirated out of each well to ensure removal of the lymphocyte population.
The monocytes were differentiated to macrophages by addition of 200 ng/mL of recombinant human GM-CSF (4 mg/mL stock) and incubated at 37° C./5% CO2 for 6 days. The medium was changed every two days by removing half the volume of medium in the well and re-supplementing with fresh RPMI complete medium and recombinant human GM-CSF.
Following differentiation, the cells were treated in duplicates with a compound according to the invention in a total volume of 50 μL, maintaining a final DMSO percentile of 0.5%. The plate was transferred to an incubator maintained at 37° C./5% CO2 for 2 hours. The cells were stimulated with 100 ng/mL of LPS (4×) (1 mg/mL stock) in a total volume of 50 μL.
The plate was transferred to an incubator maintained at 37° C./5% CO2 for 16 hours.
• 1. Each well from a pre-coated ELISA plate was aspirated and washed with wash buffer (0.05% Tween 20 in PBS; pH 7.2-7.4) by filling each well with wash buffer (300 μL). The process was repeated two times for a total of three washes. The liquid was removed completely at each step. After the last wash, any remaining wash buffer was removed. • 2. Plates were blocked by adding 300 μL of block buffer (1% BSA in PBS) to each well and incubated at room temperature for 1 hour. • 3. The aspiration/wash as in step 1 was repeated. • 4. 100 μL of sample or standard prepared in reagent diluent (0.1% BSA, 0.05% Tween 20 in PBS pH7.2-7.4) was added. The wells were covered with an adhesive strip and incubated for 2 hours at room temperature. • 5. The aspiration/wash as in step 1 was repeated. • 6. 100 μL of detection antibody, diluted in reagent diluent, was added to each well. The wells were covered with a new adhesive strip and incubated for 2 hours at room temperature. • 7. The aspiration/wash as in step 1 was repeated. • 8. 100 μL of the working dilution (1:200 from the stock) and streptavidin-HRP was added to each well. The plate was covered and incubated for 20 minutes at room temperature. • 9. 100 μL of substrate solution (1:1 mixture of H2O2 and tetramethylbenzidine) was added to each well and incubated for 20 minutes at room temperature. • 10.50 μL of stop solution (2N H2SO4) was added to each well. The plate was tapped gently to ensure thorough mixing. • 11. The optical density of each well was determined immediately using a microplate reader (Spectramax Plus) set to 450 nm. Cytokine Viability Assessment […]
(In an ELISA, binding on a coated surface is turned into a signal by an enzyme label.)

In another assay the target is Recombinant Human MAPK8 (Homo sapiens, UniProt P45983). The assay is described as follows: In vitro binding of JNK1 (MAPK8), SPRi. The conditions noted are these: 4° C. On the procedure:
Example 13—In Vitro Binding of JNK1 (MAPK8)
Various concentrations of Recombinant Human MAPK8 dissolved in water were manually printed onto a bare gold-coated (thickness 47 nm) PlexArray Nanocapture Sensor Chip (Plexera Bioscience, Seattle, WA, US) at 40% humidity. Each concentration was printed in replicate, and each spot contained 0.2 μL of the protein solution. The chip was incubated in 80% humidity at 4° C. overnight, and rinsed with 10×PBST for 10 min, 1×PBST for 10 min, and deionized water twice for 10 min. The chip was then blocked with 5% (w/v) non-fat milk in water overnight, and washed with 10×PBST for 10 min, 1×PBST for 10 min, and deionized water twice for 10 min before being dried under a stream of nitrogen prior to use.
Surface Plasmon Resonance Imaging (SPRi) measurements were performed with PlexAray HT (Plexera Bioscience, Seattle, WA, US). Collimated light (660 nm) passes through the coupling prism, reflects off the SPR-active gold surface, and is received by the CCD camera. Buffers and samples were injected by a non-pulsatile piston pump into the 30 μL flowcell that was mounted on the coupling prism. Each measurement cycle contained four steps: washing with PBST running buffer at a constant rate of 2 μL/s to obtain a stable baseline, sample injection at 5 μL/s for binding, surface washing with PBST at 2 μL/s for 300 s, and regeneration with 0.5% (v/v) H3PO4 at 2 μL/s for 300 s. All the measurements were performed at 4° C.
The signal changes after binding and washing were recorded in AU as the assay value. Selected protein-grafted regions in the SPR images were analyzed, and the average reflectivity variations of the chosen areas were plotted as a function of time. Real-time binding signals were recorded and analyzed by Data Analysis Module (DAM, Plexera Bioscience, Seattle, WA, US). Kinetic analysis was performed using BIAevaluation 4.1 software (Biacore, Inc.).

pIC50, pKd: −log10 of the molar value.

One may read the pIC50 as −log10 of the IC50, conventionally taken in molar units. The koff is the first-order rate constant of dissociation. A word on the pKd: it is the Kd on a negative log10 scale, so that one unit is a factor of ten.

Recombinant Human MAPK8, sequence (P45983 whole entry): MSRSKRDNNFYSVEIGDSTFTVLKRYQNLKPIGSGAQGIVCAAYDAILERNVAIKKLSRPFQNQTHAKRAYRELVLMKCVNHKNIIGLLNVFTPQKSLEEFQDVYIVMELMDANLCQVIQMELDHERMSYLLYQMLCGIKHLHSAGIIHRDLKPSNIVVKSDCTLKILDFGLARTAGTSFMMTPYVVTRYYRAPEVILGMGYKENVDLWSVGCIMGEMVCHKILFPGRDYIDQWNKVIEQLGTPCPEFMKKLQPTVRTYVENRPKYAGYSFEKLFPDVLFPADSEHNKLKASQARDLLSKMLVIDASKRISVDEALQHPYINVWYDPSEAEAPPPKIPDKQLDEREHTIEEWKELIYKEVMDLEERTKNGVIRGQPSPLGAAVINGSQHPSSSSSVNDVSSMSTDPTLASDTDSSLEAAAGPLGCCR

Regarding `CCOc1ccc(Oc2cc(S(=O)(=O)N(C)C)cnc2N2CCC(Oc3ccc(Cl)cc3)CC2)cc1` [Compound 7], in the assay on IL-1β, the pIC50 was 7.57. In addition, the kon at Recombinant Human MAPK8 (association rate, read-out: Ka) came out at 22900 M⁻¹ s⁻¹. Further, the koff at Recombinant Human MAPK8 (dissociation rate) was 0.000782 s⁻¹. The pKd at Recombinant Human MAPK8 (read-out: equilibrium dissociation constant (KD Value)) was 7.47.
